Entries after “also recorded” stand apart in the source; their conditions may differ. Read-outs that look alike come from different tables or passages of the source.
Legend:
[1] = system: NIH/3T3 (fibroblast); experiment: MTT antiproliferative assay; format: cell-based, murine; settings: Mus musculus; for inhibition at 10 µM: NIH3T3, 10 μM; for IC50: NIH3T3, read-out: IC50 Value (μM) ± SEM
Excerpt: (§1) As the NCI has not been accepting compound submissions from investigators outside the USA for NCI-60 testing since 2024, chrysin derivatives 3i, 3j, and 5 were instead evaluated in additional viability assays against a simplified panel of human cancer cell lines representing breast (MCF-7 and MDA-MB-231), cervical (HeLa and SiHa), and ovarian cancers. A nonmalignant fibroblast cell line (NIH/3T3) was also used to obtain preliminary results describing the cancer selectivity of the test substances. […] The two effective agents were further investigated using a broad concentration range (0.1–30 µM), and their IC50 values were calculated (Table 3).
(§2) The cell growth-inhibiting properties of compounds 3i, 3j, and 5 were determined by means of the MTT assay against a panel of human malignant cell lines of gynecological origin [8, 27, 40]. The panel included breast (MCF-7 and MDA-MB-231; Cellosaurus accessions: CVCL_0031 and CVCL_0062, respectively), cervical (HeLa and SiHa; CVCL_0030 and CVCL_0032, respectively), and ovarian (A2780; CVCL_0134) cell lines. Nonmalignant murine NIH/3T3 (CVCL_0594) fibroblasts were also used to obtain results characterizing the cancer selectivity of the tested substances. The whole assay was performed as described earlier. […] All applied cell lines were obtained from the European Collection of Cell Cultures (Salisbury, UK), except for SiHa (American Tissue Culture Collection, Manassas, VA, USA). Cisplatin, a clinically available anticancer drug, was included as a reference compound. All experiments were conducted twice, with at least five replicates per condition.

[2] = system: panel of human malignant cell lines of gynecological origin; experiment: MTT antiproliferative assay, whole panel; format: cell-based; settings: for inhibition at 10 µM / IC50: Homo sapiens; for inhibition at 10 µM: across the tested cell lines, read-out: inhibition rates; for IC50: HeLa, SiHa, MCF-7, MDA-MB-231, A2780, read-out: IC50 values (range over cancer cell lines)
Excerpt: as §1
Besides the cell growth-inhibiting potency, cancer selectivity is a crucial factor determining the perspective of a drug candidate. This property is expressed as a selectivity ratio, i.e., the ratio of the compound’s IC50 obtained on the non-cancerous fibroblasts and those from the cancer cell lines. A higher ratio indicates more promising cancer selectivity (Table 3). […] Based on these efficacy and selectivity data, further cell-based studies were performed with 3i against MCF-7 breast cancer cells.
as §2

[3] = system: MCF-7 cells; experiment: Wound-healing assay (migration); format: cell-based, human
Experimental: The effect of the selected compound on the migration of MCF-7 cells was investigated by means of the wound-healing assay.
The effect of substance 3i on the migration of the treated cancer cells was determined using a wound-healing assay, as presented earlier. Briefly, MCF-7 cells were trypsinized and plated into wound assay chambers (ibidi GmbH, Martinsried, Germany) at a density of 40,000 cells/insert, and the plate was incubated under standard conditions to allow proper attachment. Then, the inserts were carefully removed, and the cells were subsequently treated with 3i in fresh medium containing 2% FBS. The cell migration was recorded using a phase-contrast inverted microscope (Nikon Instruments Europe, Amstelveen, The Netherlands) fitted with a CCD camera (QImaging MicroPublisher Color RTV5.0 Teledyne Photometrics, Tucson, AZ, USA). The cell-free areas in treated samples and controls were determined using ImageJ software 1.54d (National Institutes of Health, Bethesda, MD, USA). The assays were performed in triplicates and all the statistical analyses were carried out by means of GraphPad Prism software.

[4] = system: MCF-7 cells; experiment: Cell cycle analysis by flow cytometry; format: cell-based, human; settings: MCF-7, 0.3 and 0.6 µM
Experimental: The observed cell cycle disturbance is consistent with a blockade at the G1–S transition, which triggers apoptotic cell death.
Cell cycle analysis by flow cytometry was applied to characterize the effects of 3i on the phase distribution of the treated cells. MCF-7 cells were seeded onto 12-well plates (200,000 cells/well) and incubated overnight. They were then treated with 0.3 or 0.6 μM for 24 or 48 h. After the treatment, the propidium iodide-labeled cells were analyzed using a CytoFLEX instrument (Beckman Coulter, Brea, CA, USA), and at least 20,000 cells per sample were evaluated, as described in a recent publication. The obtained data were processed using ModFit LT 3.3.11 software (Verity Software House, Topsham, ME, USA) as referenced by Vermes et al..

[5] = system: MDA-MB-231; experiment: MTT antiproliferative assay; format: cell-based, human; settings: for IC50 / inhibition at 10 µM / inhibition at 30 µM: Homo sapiens; for IC50: read-out: IC50 Value (μM) ± SEM; for inhibition at 10 µM: MDA-MB-231, 10 μM; for inhibition at 30 µM: MDA-MB-231, 30 μM; for Selectivity Ratio: IC50 on NIH/3T3 fibroblasts / IC50 on MDA-MB-231
Excerpt: as §1, §2

[6] = system: HeLa; experiment: MTT antiproliferative assay; format: cell-based, human; settings: for IC50 / inhibition at 10 µM / inhibition at 30 µM: Homo sapiens, HeLa; for IC50: read-out: IC50 Value (μM) ± SEM; for Selectivity Ratio: IC50 on NIH/3T3 fibroblasts / IC50 on HeLa
Excerpt: as §1, §2

[7] = system: MCF-7; experiment: MTT antiproliferative assay; format: cell-based, human; settings: for inhibition at 10 µM / inhibition at 30 µM / IC50: Homo sapiens, MCF7; for inhibition at 10 µM: MCF-7, 10 μM; for inhibition at 30 µM: MCF-7, 30 μM; for IC50: MCF-7, read-out: IC50 Value (μM) ± SEM; for Selectivity Ratio: IC50 on NIH/3T3 fibroblasts / IC50 on MCF-7
Excerpt: as §1, §2

[8] = system: A2780; experiment: MTT antiproliferative assay; format: cell-based, human; settings: for IC50 / inhibition at 10 µM / inhibition at 30 µM: Homo sapiens; for IC50: read-out: IC50 Value (μM) ± SEM; for inhibition at 10 µM: A2780, 10 μM; for inhibition at 30 µM: A2780, 30 μM; for Selectivity Ratio: IC50 on NIH/3T3 fibroblasts / IC50 on A2780
Excerpt: as §1, §2

[9] = system: SiHa; experiment: MTT antiproliferative assay; format: cell-based, human; settings: for IC50 / inhibition at 10 µM / inhibition at 30 µM: Homo sapiens, SiHa; for IC50: read-out: IC50 Value (μM) ± SEM; for Selectivity Ratio: IC50 on NIH/3T3 fibroblasts / IC50 on SiHa
Excerpt: as §1, §2

[10] = system: MDA-MB-231; design: method as in PMID 40332477; settings: published earlier ref 8, read-out: IC50 Value (μM) ± SEM; cited from earlier work
[11] = system: HeLa; design: method as in PMID 40332477; settings: published earlier ref 8, read-out: IC50 Value (μM) ± SEM; cited from earlier work
[12] = system: A2780; design: method as in PMID 40332477; settings: published earlier ref 8, read-out: IC50 Value (μM) ± SEM; cited from earlier work
[13] = system: MCF-7; design: method as in PMID 40332477; settings: published earlier ref 8, read-out: IC50 Value (μM) ± SEM; cited from earlier work
[14] = system: SiHa; design: method as in PMID 40332477; settings: published earlier ref 8, read-out: IC50 Value (μM) ± SEM; cited from earlier work
[15] = system: NIH/3T3 (fibroblast); design: method as in PMID 40332477; settings: published earlier ref 8, read-out: IC50 Value (μM) ± SEM; cited from earlier work
[16] = read-out: Growth Inhibition (%) ± SEM
[17] = NIH3T3, 30 μM, read-out: Growth Inhibition (%) ± SEM
[18] = read-out: Growth Inhibition (%) ± SEM (converted)
[19] = MDA-MB-231, heading: Growth Inhibition ± SEM
[20] = heading: Growth Inhibition ± SEM
[21] = A2780, heading: Growth Inhibition ± SEM

Row | SMILES | inhibition at 10 µM [1, 16] | inhibition at 30 µM [1, 17] | IC50 [1] | inhibition at 10 µM [2] | IC50 [2] | IC50 ([5]; MDA-MB-231) | inhibition at 10 µM [5, 16] | inhibition at 30 µM [5, 18] | Selectivity Ratio [5] | IC50 [6] | inhibition at 10 µM [6, 16] | inhibition at 30 µM [6, 18] | Selectivity Ratio [6] | inhibition at 10 µM [7, 16] | inhibition at 30 µM [7, 16] | IC50 [7] | Selectivity Ratio [7] | IC50 ([8]; A2780) | Selectivity Ratio [8] | Selectivity Ratio [9] | also measured
1 | COc1ccccc1[P+](CCCCOc1cc(O)c2c(=O)cc(-c3ccccc3)oc2c1)(c1ccccc1)c1ccccc1 [3i] | 97.73 ± 0.53% | 98.5% | 1.66 ± 0.15 µM | > 80% | 260 to 1150 nM | 0.54 ± 0.02 µM | 88.6 ± 3.72% | 87.4% | 3.07 | 1.08 ± 0.02 µM | 96.5 ± 2.76% | 98.9% | 1.54 | 95.4 ± 1.54% | 95.8 ± 1.46% | 0.26 ± 0.02 µM | 6.38 | 0.66 ± 0.03 µM | 2.52 | 1.44 | inhibition of migration ([3]; MCF-7, 24 h): significant inhibition in the migration capacity at a concentration of 0.3 μM only; inhibition of migration ([3]; MCF-7, 48 h): significant even at subantiproliferative concentration (0.1 μM); cell cycle distribution ([4]; 24 h): significantly increased the proportion of the G0/G1 cell population; cell cycle distribution ([4]; 48 h): statistically significant accumulation of the hypodiploid (SubG1) cell population; inhibition at 10 µM [8, 16]: 96.85 ± 0.37%; inhibition at 30 µM [8, 18]: 98.3%; IC50 [9]: 1.15 ± 0.03 µM; inhibition at 10 µM [9, 16]: 83.2 ± 2.13%; inhibition at 30 µM [9, 18]: 104%
2 | CC(C)(C)[P+](CCCCOc1cc(O)c2c(=O)cc(-c3ccccc3)oc2c1)(c1ccccc1)c1ccccc1 [3j] | 98.38 ± 0.53% | 99% | 1.96 ± 0.01 µM | > 80% | 880 to 2930 nM | 1.24 ± 0.02 µM | 98 ± 1.03% | 98.1 ± 0.13% | 1.58 | 2.93 ± 0.02 µM | 96.64 ± 0.26% | 97.5% | 0.67 | 98.65 ± 0.29% | 98.68 ± 0.32% | 0.88 ± 0.01 µM | 2.23 | 1.37 ± 0.04 µM | 1.43 | 1.33 | inhibition at 10 µM [8, 16]: 98.77 ± 0.19%; inhibition at 30 µM [8, 18]: 98.96 ± 0.381%; IC50 [9]: 1.47 ± 0.01 µM; inhibition at 10 µM [9, 16]: 97.91 ± 0.06%; inhibition at 30 µM [9, 18]: 97.81 ± 0.46%
3 | N.N.[Cl][Pt][Cl] [Cisplatin] | – | – | – | – | – | – | – | – | 0.14 | – | – | – | 0.20 | – | – | – | 1.04 | – | 1.93 | 0.17 | IC50 [10]: 19.13 ± 0.12 µM; IC50 [11]: 13.6 ± 0.44 µM; IC50 [12]: 1.4 ± 0.11 µM; IC50 [13]: 2.6 ± 0.17 µM; IC50 [14]: 15.5 ± 0.93 µM; IC50 [15]: 2.7 ± 0.3 µM
4 | O=C(CC(c1ccccc1)(c1ccccc1)c1ccccc1)Oc1cc(O)c2c(=O)cc(-c3ccccc3)oc2c1 [compound 5] | > 10% | – | – | – | – | – | – | – | – | – | – | – | – | – | – | – | – | – | – | – | inhibition at 30 µM ([1]; NIH3T3, heading: Growth Inhibition ± SEM, 30 μM): < 10%; cell growth-inhibiting effect (in words) ([2]; 10 and 30 μM): ineffective; also recorded: no cytotoxicity; inhibition at 10 µM [5, 19]: < 10%; inhibition at 30 µM [5, 19]: < 10%; inhibition at 10 µM [6, 20]: < 10%; inhibition at 30 µM [6, 20]: < 10%; inhibition at 10 µM [7, 20]: < 10%; inhibition at 30 µM [7, 20]: < 10%; inhibition at 10 µM [8, 21]: < 10%; inhibition at 30 µM [8, 21]: < 10%; inhibition at 10 µM [9, 20]: < 10%; inhibition at 30 µM [9, 20]: < 10%
